# Experimental data as given in patent US20100267561A1, “HERBICIDAL PYRIDAZINONE DERIVATIVES” (priority 2007, published 2010).
# Like-named read-outs stand apart in the source and are kept apart here.
# Legend:
# Test in all cases: Test B pre-/postemergence plant response
# Format in all cases: in vivo
# [1] = test system: green foxtail (Setaria viridis); conditions: Setaria viridis, pre-emergence, Preemergence, read-out: Plant response rating, Foxtail, Green
# In short: (§1)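 Seeds were sown and sprayed preemergence, while plants at 2 to 18 cm (1- to 4-leaf stage) got postemergence sprays. Compounds were formulated in a non-phytotoxic solvent mixture with surfactant. After 13 to 15 days in a greenhouse, injury was rated visually against untreated controls, 0 (no effect) to 100 (complete control).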
# [2] = test system: cocklebur (Xanthium strumarium); conditions: for pest or weed control at 31 g/ha: 31 g ai/ha; for pest or weed control at 62 g/ha: 62 g ai/ha, 100 complete control
# In short: as §1
# [3] = test system: woolly cupgrass (Eriochloa villosa); conditions: for pest or weed control at 31 g/ha: 31 g ai/ha; for pest or weed control at 62 g/ha: 62 g ai/ha, 100 complete control
# In short: as §1
# [4] = test system: lambsquarters (Chenopodium album); conditions: for pest or weed control at 31 g/ha / pest or weed control at 62 g/ha: Chenopodium album, read-out: Plant response rating, Lambsquarters; for pest or weed control at 31 g/ha: 31 g ai/ha; for pest or weed control at 62 g/ha: 62 g ai/ha, 100 complete control
# In short: as §1
# [5] = test system: velvetleaf (Abutilon theophrasti); conditions: for pest or weed control at 31 g/ha / pest or weed control at 62 g/ha: Abutilon theophrasti, read-out: Plant response rating, Velvetleaf; for pest or weed control at 31 g/ha: 31 g ai/ha; for pest or weed control at 62 g/ha: 62 g ai/ha, 100 complete control
# In short: as §1
# [6] = test system: wheat (Triticum aestivum); conditions: for plant injury at 31 g/ha / plant injury at 62 g/ha: Triticum aestivum, read-out: Plant response rating, Wheat; for plant injury at 31 g/ha: 31 g ai/ha; for plant injury at 62 g/ha: 62 g ai/ha, 100 complete control
# In short: as §1
# [7] = test system: goosegrass (Eleusine indica); conditions: for pest or weed control at 31 g/ha / pest or weed control at 62 g/ha: Eleusine indica, read-out: Plant response rating, Goosegrass; for pest or weed control at 31 g/ha: 31 g ai/ha; for pest or weed control at 62 g/ha: 62 g ai/ha, 100 complete control
# In short: as §1
# [8] = 8 g ai/ha, postemergence, 0-100 scale
# [9] = Preemergence, 8 g ai/ha, scale 0 to 100 (0 no effect, 100 complete control)
# [10] = Preemergence, 16 g ai/ha, scale 0 to 100
# [11] = 16 g ai/ha, postemergence, 0-100 scale
# [12] = post-emergence, Postemergence, scale 0 to 100
# [13] = post-emergence, Postemergence, scale 0 to 100, 0 no effect
# [14] = pre-emergence, Preemergence, scale 0 to 100 (0 no effect, 100 complete control)
# [15] = pre-emergence, Preemergence, 0 to 100 scale, 0 no effect
compound,measurement,setting,value
"Cc1cc(-c2ccc(Br)cc2)nn1-c1c(O)cn[nH]c1=O [Compound 78, 4-[3-(4-bromophenyl)-5-methyl-1H-pyrazol-1-yl]-5-hydroxy-3(2H)-pyridazinone]",pest or weed control at 31 g/ha,"[1]; 31 g ai/ha, scale 0 to 100 (0 no effect, 100 complete control)",100%
same,pest or weed control at 62 g/ha,"[1]; 62 g ai/ha, 0 to 100 scale, 0 no effect, 100 complete control",100%
same,Cocklebur plant response rating,[2]; [8],0
same,Cocklebur plant response rating,[2]; [9],0
same,Cocklebur plant response rating,[2]; [10],0
same,pest or weed control at 16 g/ha,"[2]; Xanthium strumarium, post-emergence, Postemergence, 16 g ai/ha, scale 0 to 100, read-out: Plant response rating, Cocklebur",0%
same,pest or weed control at 31 g/ha,"[2]; Xanthium strumarium, post-emergence, Postemergence, scale 0 to 100, read-out: Plant response rating, Cocklebur",0%
same,pest or weed control at 62 g/ha,"[2]; Xanthium strumarium, post-emergence, Postemergence, scale 0 to 100, 0 no effect, read-out: Plant response rating, Cocklebur",0%
same,pest or weed control at 31 g/ha,"[2]; Xanthium strumarium, pre-emergence, Preemergence, scale 0 to 100 (0 no effect, 100 complete control), read-out: Plant response rating, Cocklebur",0%
same,pest or weed control at 62 g/ha,"[2]; Xanthium strumarium, pre-emergence, Preemergence, 0 to 100 scale, 0 no effect, read-out: Plant response rating, Cocklebur",0%
same,"Cupgrass, Woolly plant response rating",[3]; [8],98
same,pest or weed control at 16 g/ha,"[3]; Eriochloa villosa, post-emergence, Postemergence, 16 g ai/ha, scale 0 to 100, read-out: Plant response rating, Cupgrass, Woolly",100%
same,pest or weed control at 31 g/ha,"[3]; Eriochloa villosa, post-emergence, Postemergence, scale 0 to 100, read-out: Plant response rating, Cupgrass, Woolly",100%
same,pest or weed control at 62 g/ha,"[3]; Eriochloa villosa, post-emergence, Postemergence, scale 0 to 100, 0 no effect, read-out: Plant response rating, Cupgrass, Woolly",100%
same,pest or weed control at 31 g/ha,"[3]; Eriochloa villosa, pre-emergence, Preemergence, scale 0 to 100 (0 no effect, 100 complete control), read-out: Plant response rating, Cupgrass, Woolly",100%
same,pest or weed control at 62 g/ha,"[3]; Eriochloa villosa, pre-emergence, Preemergence, 0 to 100 scale, 0 no effect, read-out: Plant response rating, Cupgrass, Woolly",100%
same,"Cupgrass, Woolly plant response rating",[3]; [9],65
same,"Cupgrass, Woolly plant response rating",[3]; [10],98
same,Lambsquarters plant response rating,[4]; [8],0
same,Lambsquarters plant response rating,[4]; [11],0
same,pest or weed control at 31 g/ha,[4]; [12],0%
same,pest or weed control at 62 g/ha,[4]; [13],0%
same,pest or weed control at 31 g/ha,[4]; [14],0%
same,pest or weed control at 62 g/ha,[4]; [15],0%
same,Lambsquarters plant response rating,[4]; [9],0
same,Lambsquarters plant response rating,[4]; [10],0
same,Velvetleaf plant response rating,[5]; [8],0
same,Velvetleaf plant response rating,[5]; [11],0
same,pest or weed control at 31 g/ha,[5]; [12],0%
same,pest or weed control at 62 g/ha,[5]; [13],0%
same,pest or weed control at 31 g/ha,[5]; [14],0%
same,pest or weed control at 62 g/ha,[5]; [15],0%
same,Velvetleaf plant response rating,[5]; [9],0
same,Velvetleaf plant response rating,[5]; [10],0
same,Wheat plant response rating,[6]; [8],50
same,Wheat plant response rating,[6]; [11],85
same,Wheat plant response rating,[6]; [9],0
same,Wheat plant response rating,[6]; [10],80
same,plant injury at 31 g/ha,[6]; [12],98%
same,plant injury at 62 g/ha,[6]; [13],100%
same,plant injury at 31 g/ha,[6]; [14],90%
same,plant injury at 62 g/ha,[6]; [15],95%
same,Goosegrass plant response rating,[7]; [8],70
same,Goosegrass plant response rating,[7]; [11],85
same,pest or weed control at 31 g/ha,[7]; [12],90%
same,pest or weed control at 62 g/ha,[7]; [13],100%
same,pest or weed control at 31 g/ha,[7]; [14],100%
same,pest or weed control at 62 g/ha,[7]; [15],100%
same,Goosegrass plant response rating,[7]; [9],85
same,Goosegrass plant response rating,[7]; [10],100
